The values below come from patent US8987314B2, “Amide, urea or sulfone amide linked benzothiazole inhibitors of endothelial lipase” (Bristol-Myers Squibb Company, priority 2012, dated 2015).

One assay concerns the target Endothelial lipase (EL) (Homo sapiens (Human), UniProt Q9Y5X9). Briefly: EL assay: endothelial lipase activity with fluorescent substrate A10070 in DMPG vesicles. The format is biochemical. On the procedure:
(§1) Endothelial lipase (EL) and hepatic lipase (HL) activities were measured using a fluorescent substrate, A10070, (Invitrogen, CA) doped into an artificial vesicle containing DMPG (Avanti Polar Lipids) as the excipient. Vesicles were prepared by combining 571 μL of 29 mM DMPG in a 1:1 mixture of MeOH and CHCl3 with 2000 μL of 1 mM A10070 in a 1:1 mixture of MeOH and CHCl3. The mixture was dried under nitrogen in multiple vials then resuspended in 20 mL total volume of 50 mM HEPES pH 8.0 buffer containing 50 mM NaCl and 0.2 mM EDTA. The sample was allowed to sit at room temperature for 15 min and then was sonicated 3×4 mins on ice with a Branson Sonicator using duty cycle 1. This preparation provides vesicles with a mole fraction of 0.11 for the FRET substrate.
(§2) The enzymatic assay was measured using 384-well white Optiplates. Each well contained 20 μL of assay buffer (50 mM HEPES pH 8.0, 50 mM NaCl and 1 mM CaCl2) and 0.25 μL of a DMSO solution containing a compound of interest. EL or HL (10 μL) was added and allowed to incubate with the compound for 30 min at 37° C. The source of EL was conditioned media obtained from HT-1080 cells that were transformed using RAGE technology (Athersys) to overexpress endogenous EL, and HL was partially purified from conditioned media obtained from COS cells overexpressing HL. The reaction was started by the addition of 10 μL of a 1:10 dilution of vesicles. The final total reaction volume was […]. The reaction rates were measured on a Gemini plate reader with an excitation wavelength of 490 nm and an emission wavelength of 530 nm. Readings were taken over a period of 60 minutes, and the slope between 300 and 900 secs of the readout was used to calculate the rate of the reaction.

The next assay has as its target hepatic lipase (HL) (Homo sapiens (Human), UniProt P11150). Briefly: HL assay: hepatic lipase activity with fluorescent substrate A10070 in DMPG vesicles. The format is biochemical. On the procedure:
as §1, §2

hepatic lipase (HL), sequence (P11150 23-499, species assumed): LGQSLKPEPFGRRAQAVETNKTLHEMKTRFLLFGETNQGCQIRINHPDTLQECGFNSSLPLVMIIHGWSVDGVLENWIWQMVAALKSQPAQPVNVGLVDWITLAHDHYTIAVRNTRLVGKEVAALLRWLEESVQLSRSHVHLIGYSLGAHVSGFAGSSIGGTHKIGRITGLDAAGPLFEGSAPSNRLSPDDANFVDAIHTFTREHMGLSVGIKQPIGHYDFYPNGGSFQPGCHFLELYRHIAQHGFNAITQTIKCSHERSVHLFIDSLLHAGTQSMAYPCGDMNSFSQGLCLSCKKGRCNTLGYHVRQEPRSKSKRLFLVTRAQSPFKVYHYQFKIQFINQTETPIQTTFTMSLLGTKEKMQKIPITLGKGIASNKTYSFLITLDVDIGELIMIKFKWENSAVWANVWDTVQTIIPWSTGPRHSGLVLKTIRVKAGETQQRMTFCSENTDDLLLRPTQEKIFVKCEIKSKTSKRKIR
Endothelial lipase (EL), sequence (Q9Y5X9 21-500): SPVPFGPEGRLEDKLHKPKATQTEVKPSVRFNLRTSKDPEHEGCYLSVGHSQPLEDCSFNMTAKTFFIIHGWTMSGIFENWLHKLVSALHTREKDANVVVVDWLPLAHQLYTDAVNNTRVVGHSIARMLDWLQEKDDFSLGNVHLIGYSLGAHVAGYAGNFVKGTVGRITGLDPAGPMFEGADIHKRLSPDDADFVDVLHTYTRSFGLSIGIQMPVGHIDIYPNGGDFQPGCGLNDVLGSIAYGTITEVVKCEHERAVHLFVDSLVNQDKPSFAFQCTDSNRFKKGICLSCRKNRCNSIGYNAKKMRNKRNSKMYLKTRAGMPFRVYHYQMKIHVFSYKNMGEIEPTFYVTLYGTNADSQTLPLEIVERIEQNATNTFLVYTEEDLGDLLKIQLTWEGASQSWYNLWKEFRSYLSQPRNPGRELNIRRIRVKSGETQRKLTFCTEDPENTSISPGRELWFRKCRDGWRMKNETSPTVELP

Regarding `Cc1cc(-c2ccc3nc(C(C(=O)NCCS(N)(=O)=O)S(C)(=O)=O)sc3c2)cnc1F` (stereo not shown) [Example B33, 2-(6-(6-fluoro-5-methyl-3-pyridinyl)-1,3-benzothiazol-2-yl)-2-(methylsulfonyl)-N-(2-sulfamoylethyl)acetamide], the figures for the IC50 on Endothelial lipase (EL) and at hepatic lipase (HL) were 14 nM and 22 nM, respectively.

As for `CS(=O)(=O)C(C(=O)NCCS(N)(=O)=O)c1nc2ccc(-c3cnn(CCN4CCOCC4)c3)cc2s1` (stereo not shown) [Example B34, 2-(methylsulfonyl)-2-(6-(1-(2-(4-morpholinyl)ethyl)-1H-pyrazol-4-yl)-1,3-benzothiazol-2-yl)-N-(2-sulfamoylethyl)acetamide], the values for the IC50 against Endothelial lipase (EL) and at hepatic lipase (HL) were less than 10 nM and 313 nM, respectively.

For the compound `COCCNC(=O)c1ccc(-c2ccc3nc(C(C(=O)NCCS(N)(=O)=O)S(C)(=O)=O)sc3c2)cc1` (stereo not shown) [Example B35, N-(2-methoxyethyl)-4-(2-{1-(methylsulfonyl)-2-oxo-2-[(2-sulfamoylethyl)a-mino]ethyl}-1,3-benzothiazol-6-yl)ben-zamide], the IC50 is less than 10 nM at Endothelial lipase (EL) and 43 nM on hepatic lipase (HL).

With `CS(=O)(=O)C(C(=O)NCCS(N)(=O)=O)c1nc2ccc(-c3ccc(F)cc3)cc2s1` (stereo not shown) [Example B36, 2-(6-(4-fluorophenyl)-1,3-benzothiazol-2-yl)-2-(methylsulfonyl)-N-(2-sulfamoylethyl)acetamide], the IC50 at Endothelial lipase (EL) and at hepatic lipase (HL) was less than 10 nM each time.

As for `CS(=O)(=O)C(C(=O)NCCS(N)(=O)=O)c1nc2ccc(-c3cccc(F)c3)cc2s1` (stereo not shown) [Example B37, 2-(6-(3-fluorophenyl)-1,3-benzothiazol-2-yl)-2-(methylsulfonyl)-N-(2-sulfamoylethyl)acetamide], the IC50 against Endothelial lipase (EL) and on hepatic lipase (HL) was less than 10 nM throughout.

As for `CS(=O)(=O)C(C(=O)NCCS(N)(=O)=O)c1nc2ccc(-c3ccc4c(c3)OCO4)cc2s1` (stereo not shown) [Example B38, 2-(6-(1,3-benzodioxol-5-yl)-1,3-benzothiazol-2-yl)-2-(methylsulfonyl)-N-(2-sulfamoylethyl)acetamide], the IC50 against Endothelial lipase (EL) and at hepatic lipase (HL) was less than 10 nM each time.

For the compound `CS(=O)(=O)C(C(=O)NCCS(N)(=O)=O)c1nc2ccc(-c3ccc(OC(F)(F)F)cc3)cc2s1` (stereo not shown) [Example B39, 2-(methylsulfonyl)-N-(2-sulfamoylethyl)-2-(6-(4-(trifluoromethoxy)phenyl)-1,3-benzothiazol-2-yl)acetamide], the IC50 on Endothelial lipase (EL) and against hepatic lipase (HL) was less than 10 nM each time.

In the case of `CS(=O)(=O)C(C(=O)NCCS(N)(=O)=O)c1nc2ccc(-c3ccc(C(=O)NCCO)cc3)cc2s1` (stereo not shown) [Example B40, N-(2-hydroxyethyl)-4-(2-(1-(methylsulfonyl)-2-oxo-2-((2-sulfamoylethyl)a-mino)ethyl)-1,3-benzothiazol-6-yl)ben-zamide], the IC50 is less than 10 nM against Endothelial lipase (EL) and 19 nM against hepatic lipase (HL).

On to `CS(=O)(=O)C(C(=O)NCCS(N)(=O)=O)c1nc2ccc(-c3ccc(C(=O)NCC(F)(F)F)cc3)cc2s1` (stereo not shown) [Example B41, 4-(2-(1-(methylsulfonyl)-2-oxo-2-((2-sulfamoylethyl)a-mino)ethyl)-1,3-benzothiazol-6-yl)-N-(2,2,2-trifluoroethyl)ben-zamide], for which the IC50 is less than 10 nM against Endothelial lipase (EL) and 17 nM against hepatic lipase (HL).

Turning to `CS(=O)(=O)C(C(=O)NCCS(N)(=O)=O)c1nc2ccc(-c3ccc(OCCN4CCCCC4)cc3)cc2s1` (stereo not shown) [Example B42, 2-(methylsulfonyl)-2-(6-(4-(2-(1-piperidinyl)ethoxy)phen-yl)-1,3-benzothiazol-2-yl)-N-(2-sulfamoylethyl)a-cetamide], the IC50 against Endothelial lipase (EL) was less than 10 nM; against hepatic lipase (HL), 10 nM.

Take `CC1CCN(C(=O)c2ccc(-c3ccc4nc(C(C(=O)NCCS(N)(=O)=O)S(C)(=O)=O)sc4c3)cc2)CC1` (stereo not shown) [Example B43, 2-(6-{4-[(4-methyl-1-piperidinyl)carbonyl]phen-yl}-1,3-benzothiazol-2-yl)-2-(methylsulfonyl)-N-(2-sulfamoylethyl)a-cetamide]: the IC50 against Endothelial lipase (EL) and against hepatic lipase (HL) was less than 10 nM in each case.

For the compound `CC(=O)Nc1ccc(-c2ccc3nc(C(C(=O)NCCS(N)(=O)=O)S(=O)(=O)Cc4ccccc4)sc3c2)cc1` (stereo not shown) [Example B44, 2-(6-(4-acetamidophenyl)-1,3-benzothiazol-2-yl)-2-(benzylsulfonyl)-N-(2-sulfamoylethyl)acetamide], the IC50 was less than 10 nM at Endothelial lipase (EL) and 148 nM at hepatic lipase (HL).

As for `NS(=O)(=O)CCNC(=O)C(c1nc2ccc(-c3ccc(C(=O)NCC(F)(F)F)cc3)cc2s1)S(=O)(=O)CCC(F)(F)F` (stereo not shown) [Example B45, 4-(2-(2-oxo-2-((2-sulfamoylethyl)amino)-1-((3,3,3-trifluoropropyl)sul-fonyl)ethyl)-1,3-benzothiazol-6-yl)-N-(2,2,2-trifluoroethyl)ben-zamide], the IC50 is less than 10 nM at Endothelial lipase (EL) and 38 nM against hepatic lipase (HL).

On to `NS(=O)(=O)CCNC(=O)C(c1nc2ccc(-c3ccc(C(=O)NCCO)cc3)cc2s1)S(=O)(=O)CCC(F)(F)F` (stereo not shown) [Example B46, N-(2-hydroxyethyl)-4-(2-(2-oxo-2-((2-sulfamoylethyl)amino)-1-((3,3,3-trifluoropropyl)sul-fonyl)ethyl)-1,3-benzothiazol-6-yl)ben-zamide], for which the IC50 was less than 10 nM against Endothelial lipase (EL) and 520 nM at hepatic lipase (HL).

Consider `CS(=O)(=O)C(C(=O)NCCS(N)(=O)=O)c1nc2ccc(-c3ccc(CCO)cc3)cc2s1` (stereo not shown) [Example B47, 2-(6-(4-(2-hydroxyethyl)phenyl)-1,3-benzothiazol-2-yl)-2-(methylsulfonyl)-N-(2-sulfamoylethyl)acetamide], for which the IC50 against Endothelial lipase (EL) was less than 10 nM; against hepatic lipase (HL), 35 nM.

On to `COCCOc1ccc(-c2ccc3nc(C(C(=O)NCCS(N)(=O)=O)S(C)(=O)=O)sc3c2)cc1` (stereo not shown) [Example B48, 2-(6-(4-(2-methoxyethoxy)phenyl)-1,3-benzothiazol-2-yl)-2-(methylsulfonyl)-N-(2-sulfamoylethyl)acetamide], for which the results for the IC50 on Endothelial lipase (EL) and against hepatic lipase (HL) were less than 10 nM and 11 nM, respectively.

Take `COCCNC(=O)c1cccc(-c2ccc3nc(C(C(=O)NCCS(N)(=O)=O)S(C)(=O)=O)sc3c2)c1` (stereo not shown) [Example B49, N-(2-methoxyethyl)-3-(2-(1-(methylsulfonyl)-2-oxo-2-((2-sulfamoylethyl)a-mino)ethyl)-1,3-benzothiazol-6-yl)ben-zamide]: the IC50 was less than 10 nM against Endothelial lipase (EL) and 152 nM against hepatic lipase (HL).

For `CS(=O)(=O)C(C(=O)NCCS(N)(=O)=O)c1nc2ccc(-c3ccc(C#N)cc3)cc2s1` (stereo not shown) [Example B50, 2-(6-(4-cyanophenyl)-1,3-benzothiazol-2-yl)-2-(methylsulfonyl)-N-(2-Sulfamoylethyl)acetamide], the IC50 was less than 10 nM against Endothelial lipase (EL) and 14 nM at hepatic lipase (HL).

With `CS(=O)(=O)C(C(=O)NCCS(N)(=O)=O)c1nc2ccc(-c3cccc(C#N)c3)cc2s1` (stereo not shown) [Example B51, 2-(6-(3-cyanophenyl)-1,3-benzothiazol-2-yl)-2-(methylsulfonyl)-N-(2-sulfamoylethyl)acetamide], the IC50 at Endothelial lipase (EL) and against hepatic lipase (HL) was less than 10 nM each time.

Regarding `CC(=O)Nc1cccc(-c2ccc3nc(C(C(=O)NCCS(N)(=O)=O)S(C)(=O)=O)sc3c2)c1` (stereo not shown) [Example B52, 2-(6-(3-acetamidophenyl)-1,3-benzothiazol-2-yl)-2-(methylsulfonyl)-N-(2-sulfamoylethyl)acetamide], the results for the IC50 on Endothelial lipase (EL) and against hepatic lipase (HL) were less than 10 nM and 66 nM, respectively.

Usually IC50 stands for the concentration that gives 50% inhibition. Low values mean inhibition by little substance, high ones a need for much substance.
